Test results from patent US8211646B1, “Methods of treating ovarian cancer by modulating SnoN” (University of South Florida, priority 2008, dated 2012).

Key:
Type in all cases: cell-based
HSP27 = assay: Western analysis of HSP27; conditions: HEY, 18 hours As2O3
Method: Proteins were resolved on an 8%, 12%, or 15% SDS-PAGE gel (as appropriate) and electrophoretically transferred to polyvinyldifluoride (PVDF) membranes. After blocking with 5% (w/v) milk in TBST (Tris-Buffered Saline containing 0.1% Tween-20) for one hour at room temperature, membranes were incubated with primary antibodies (at appropriate dilution) overnight at 4° C., followed by extensive washing and incubation for 1 hour with the appropriate horseradish peroxidase-conjugated secondary antibodies (BioRad, Hercules, Calif.). Blots were washed extensively. A rabbit polyclonal EVI1 antibody was obtained (1:3000 dilution, St. Jude's Children's Hospital, Memphis, Tenn.). SnoN rabbit polyclonal (1:1000 dilution), PML, and p21 SMURF2 rabbit polyclonal (1:500 dilution), MRP1 mouse monoclonal (1:500 dilution) and GAPDH mouse monoclonal (1:250 dilution) antibodies were obtained from Santa Cruz Biotechnology (Santa Cruz, Calif.). TGFβRII rabbit polyclonal (1:1000 dilution) antibody was obtained from Strategic Diagnostics (Newark, Del.). Smad2/3 rabbit polyclonal (1:1000 dilution), Beclin-1 rabbit polyclonal (1:1000 dilution), AKT rabbit polyclonal (1:1000 dilution), TAK1 rabbit polyclonal (1:1000 dilution), PARP rabbit polyclonal (1:1000 dilution), Beclin-1 rabbit polyclonal (1:1000 dilution), caspase-3 rabbit polyclonal (1:1000) which detects the pro-caspase form, and ATG5 rabbit polyclonal (1:1000 dilution), LC3-II rabbit polyclonal (1:1000 dilution) antibodies were obtained from Cell Signaling Technology (Danvers, Mass.). […]
(§1) The clinical inhibitors As2O3, geldanamycin (17-AAG) (dissolved in dimethylsulfoxide [DMSO]), and MG132 (dissolved in DMSO) were obtained from Sigma-Aldrich (St. Louis, Mo.), Fisher Scientific (Pittsburgh, Pa.), and Alexis Biochemicals (Farmingdale, N.Y.), respectively. […] After the appropriate incubation time (6 or 18 hours), cell lysates were collected, protein quantified, and SDS-PAGE/western analysis was performed. In addition, for selected studies, RNA was isolated, quantified, and used for qPCR analysis.

SnoN RNA = assay: qPCR of SnoN RNA levels in ovarian cell lines; conditions: 5 μM As2O3, 18 hours
Method: (§2) RNA was isolated using the RNeasy Mini Kit (Qiagen, Valencia, Calif.) from normal, benign, stage I-IV ovarian patient samples and quantitative PCR was performed. A one-step RT-PCR Taqman master mix from Applied Biosystems (Foster City, Calif.) and primers for genes in the 3q26.2 amplicon were obtained using Genebank sequences as well as from Assays on Demand (Hs00180524_m1 (SnoN/SkiL)), with the following primers and probe sets.
(§3) Primers/probe sequences for SnoN (Hs00180524_m1), TGFβRII (Hs00234253_m1), and LC3 (Hs00261291_m1) were obtained from Applied Biosystems (Assays by Design).
(§4) mRNA levels were determined using the One-Step-Plus Applied Biosystems Detection System or ABI PRISM 7700 Sequence Detection System using β-actin as a reference. PCR conditions were as follows: stage I: 48° C. for 30 min; stage II: 95° C. for 10 min; stage III: [40 cycles] 95° C. for 15 s followed by 60° C. for 1 min Using the correlative method, RNA-fold change in expression was calculated as Ct of gene—Ct of β-actin to generate ΔCt from which ΔCt of the normal sample was subtracted. These values were then converted to log2 values.
as §1, with “respectively. N-acetyl-L-cysteine (NAC; dissolved in media) and Bortezomib (PS-341; dissolved in DMSO) were obtained from Fisher Scientific. 3-Methyladenine (3-MA; dissolved in media) was obtained from MP Biomedicals (Solon, Ohio). Tiron (4,5-Dihydroxy-1,3-benzenedisulfonic acid, dissolved in media) was obtained from Fisher Scientific. zVAD-fmk (dissolved in DMSO) and bafilomycin A (dissolved in DMSO) was obtained from Axxora LLC (San Diego, Calif.).” for “respectively.”

EVI1 and TGFβRII RNA = assay: qPCR of EVI1 and TGFβRII RNA levels; conditions: 5 μM As2O3, 18 hours
Method: as §2
EVI1 Exon III—(detects both EVI1 and MDS1/EVI1):
as §3
as §4, with “PCR conditions were as follows: stage I: 48° C. for 30 min; stage II: 95° C. for 10 min; stage III: [40 cycles]” left out, “These values were then converted to log2 values.” left out
The clinical inhibitors As2O3, geldanamycin (17-AAG) (dissolved in dimethylsulfoxide [DMSO]), and MG132 (dissolved in DMSO) were obtained from Sigma-Aldrich (St. Louis, Mo.), Fisher Scientific (Pittsburgh, Pa.), and Alexis Biochemicals (Farmingdale, N.Y.), respectively. […] In addition, for selected studies, RNA was isolated, quantified, and used for qPCR analysis.

## Arsenic trioxide [As2O3]
HSP27
  HSP27 expression: increased
SnoN RNA
  effect on SnoN RNA: little effect
EVI1 and TGFβRII RNA
  decrease in EVI1 and TGFβRII RNA levels: < 20%
